Where a name gives a salt, the structure may show the parent alone.
target: T1, hTRPA1 (Homo sapiens, UniProt O75762); test: IC50 determination, dose response calcium flux (FLIPR) assay, ChanTest hTRPA1-CHO stably transfected cell line; format: cell-based; settings: CHO-K1 Tet-On hTRPA1 cells, 30' preincubation, agonist cinnamaldehyde final 100 uM
T1 construct: host or cells: CHO-K1 Tet-On, Clone 20 (Chinese Hamster Ovary cells, inducible expression)
Experimental: IC50 Determination of Exemplified Compounds Dose Response Assay: ChanTest hTRPA1-CHO Stably Transfected Cell Line
CHO-K1 Tet-On_HOMSA_TRPA1_Clone—20
Growth Media for CHO-K1 Tet-On_HOMSA_TRPA1_Clone—20 • Ham's F-12 with 10% tetracycline-free FBS • 1× penicillin-streptomycin • 1× glutamax • 0.01 mg/ml Blasticidin • 0.40 mg/ml Zeocin • The cell line doubling rate was ˜15 hours. […] Experiments were run at 24 hours post induction.
Plating Conditions CHOK1/TRPA1 Cells: • Harvested cells with 0.025% trypsin/EDTA. • Resuspended cells in growth media without selection antibiotics. • Measured cell density and diluted to 2.4×10^5 cells/ml in media containing 1 ug/ml Doxycycline Plate 25 ul/well into 384 well black/clear tissue culture-treated plates. • Incubated overnight at 37° C.
Reagents: • Replacement Buffer: Hank's Balanced Salt Solution, 20 mM HEPES along with 0.005% BSA and 2× Probenecid • Dye Loading Buffer: Cal-3 NW Calcium dye was prepared by dissolving the contents of one vial with […] Hank's Balanced Salt Solution containing 20 mM HEPES. • Control compounds for CHOK1/TRPA1 cells: AP-18, stock 10 mM, prepare 3.5× compound dilution in a Compound Buffer (HBSS/20 mM HEPES/0.005% BSA)—final concentration 10 uM.
Preparation of Cinnamaldehyde (Agonist Addition):
• Specific gravity=1.046 gm/cc • 1.32 gm/1.046 gm/cc=1.26 ml of stock • Add 1.74 ml DMSO=3.3 M stock • Working solution 4.5× (final 100 uM in Compound Buffer: HBSS/20 mM HEPES/0.005% BSA)
Compounds dilutions were prepared from 5 or 10 mM stock (100% DMSO): • Adjustments of volumes and concentrations were made at time of titration to reflect desired final assay concentrations. • Compounds were tested at either 20 μM three folds dilution 11 steps out or 30 μM two folds dilution 11 steps out. • 3 μl of diluted compound were transferred into Weidmann 384-well plate in duplicates side-by-side.
Compound plates were resuspended with 100 ul of HBSS/20 mM HEPES/0.005% BSA buffer (Compound Buffer):
Growth media was removed from the cell plates (20 ul) and 20 ul of the Replacement Buffer was added followed by addition of 25 ul of diluted dye. All three steps were performed using a Plate Washer BioTek 407. The plates were then incubated for 30′ at RT.
After incubation, both the cell and compound plates were brought to the FLIPR and 20 ul of the diluted compounds/antagonist/bk were transferred to the cell plates by the FLIPR. Plates were then incubated for 30′ at room temperature. After 30′ incubation, plates were returned to the FLIPR and 20 ul of 4.5× Cinnamaldehyde was added to the cell plates. During the compound addition as well as agonist addition, fluorescence readings were taken simultaneously from all 384 wells of the cell plate every 1.5 seconds. Five readings were taken to establish a stable baseline, then 20 ul of sample was rapidly (30 ul/sec) and simultaneously added to each well of the cell plate. The fluorescence was continuously monitored before, during and after sample/agonist addition for a total elapsed time of 100 seconds (compound addition) and 120 seconds (agonist addition). Responses (increase in peak fluorescence) in each well following agonist addition was determined. The initial fluorescence reading from each well, prior to ligand stimulation, was used a zero baseline value for the data from that well.

T1 sequence (O75762 whole entry): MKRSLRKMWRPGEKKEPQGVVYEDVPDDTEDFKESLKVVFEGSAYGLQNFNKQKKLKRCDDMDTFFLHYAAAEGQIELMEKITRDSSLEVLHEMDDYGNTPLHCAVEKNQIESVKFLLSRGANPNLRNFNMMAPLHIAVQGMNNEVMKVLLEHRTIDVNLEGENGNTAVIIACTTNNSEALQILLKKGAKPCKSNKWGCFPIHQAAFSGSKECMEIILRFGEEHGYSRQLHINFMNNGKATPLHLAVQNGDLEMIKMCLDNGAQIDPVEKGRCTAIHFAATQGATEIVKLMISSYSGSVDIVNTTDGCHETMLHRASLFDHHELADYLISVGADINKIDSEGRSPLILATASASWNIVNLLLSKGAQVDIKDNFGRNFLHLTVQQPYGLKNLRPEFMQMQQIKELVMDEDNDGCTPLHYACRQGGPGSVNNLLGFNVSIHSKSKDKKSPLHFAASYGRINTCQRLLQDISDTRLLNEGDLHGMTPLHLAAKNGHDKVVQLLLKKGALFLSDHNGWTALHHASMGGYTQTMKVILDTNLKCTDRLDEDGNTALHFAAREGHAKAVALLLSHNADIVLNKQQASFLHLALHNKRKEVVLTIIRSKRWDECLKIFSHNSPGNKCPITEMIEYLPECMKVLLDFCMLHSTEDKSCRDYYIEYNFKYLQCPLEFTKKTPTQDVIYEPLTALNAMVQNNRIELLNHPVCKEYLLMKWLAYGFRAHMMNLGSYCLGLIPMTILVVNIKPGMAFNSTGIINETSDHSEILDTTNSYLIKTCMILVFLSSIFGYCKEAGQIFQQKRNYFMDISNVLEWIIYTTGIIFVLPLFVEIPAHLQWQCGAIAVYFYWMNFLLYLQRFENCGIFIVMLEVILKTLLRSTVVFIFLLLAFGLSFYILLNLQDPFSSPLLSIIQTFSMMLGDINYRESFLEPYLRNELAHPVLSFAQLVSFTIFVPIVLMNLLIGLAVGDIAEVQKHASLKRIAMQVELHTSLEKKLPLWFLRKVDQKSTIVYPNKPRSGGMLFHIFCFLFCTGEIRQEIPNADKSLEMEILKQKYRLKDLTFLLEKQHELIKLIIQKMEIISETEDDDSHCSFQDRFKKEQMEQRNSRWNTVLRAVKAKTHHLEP

| Structure (SMILES) | IC50 |
| --- | --- |
| O=C(Nc1ccc(Cl)cc1)O[C@H](CN1CCC[C@@H](c2ccccc2)C1)C(F)(F)F [Example 8, (4-Chlorophenyl)-carbamic acid (R)-2,2,2-trifluoro-1-((S)-3-phenylpiperidin-1-ylmethyl)-ethyl ester hydrochloride] | 6200 nM |
| CS(=O)(=O)c1cccc(C2CCCN(C[C@H](OC(=O)Nc3ccc(F)cc3)C(F)(F)F)C2)c1 (stereo partly drawn) [Example 63, (4-Fluorophenyl)-carbamic acid (S)-2,2,2-trifluoro-1-[3-(3-methanesulfonylphenyl)-piperidin-1-ylmethyl]-ethyl ester hydrochloride] | 2910 nM |
| O=C(Nc1ccc(Cl)cc1)O[C@@H](CN1CCCC(c2ccc(F)cc2)C1)C(F)(F)F (stereo partly drawn) [Example 42, (4-Chlorophenyl)-carbamic acid (S)-2,2,2-trifluoro-1-[3-(4-fluorophenyl)-piperidin-1-ylmethyl]-ethyl ester hydrochloride] | 444 nM |
| O=C(Nc1ccc(Cl)cc1)O[C@@H](CN1CCC[C@@H](c2cc(C(F)(F)F)cc(C(F)(F)F)c2)C1)C(F)(F)F (single isomer, unassigned) [Example 24] | 312 nM |
| O=C(Nc1ccc(Cl)cc1)O[C@@H](CN1CCCC(c2cccc(C(F)(F)F)n2)C1)C(F)(F)F (stereo partly drawn) [Example 56, (4-Chlorophenyl)-carbamic acid (S)-2,2,2-trifluoro-1-(6-trifluoromethyl-3′,4′,5′,6′-tetrahydro-2′H-[2,3′]bipyridinyl-1′-ylmethyl)-ethyl ester hydrochloride] | 246 nM |
| O=C(Nc1ccc(Cl)cc1)O[C@@H](CN1CCC[C@@H](Cc2ccccc2)C1)C(F)(F)F (single isomer, unassigned) [Example 10] | 1340 nM |
| COc1cccc(C2CCCN(C[C@H](OC(=O)Nc3ccc(Br)cc3)C(F)(F)F)C2)c1 (stereo partly drawn) [Example 60, (4-Bromophenyl)-carbamic acid (S)-2,2,2-trifluoro-1-[3-(3-methoxyphenyl)-piperidin-1-ylmethyl]-ethyl ester hydrochloride] | 365 nM |
| COc1cc([C@H]2CCCN(C[C@H](OC(=O)Nc3ccc(Cl)cc3)C(F)(F)F)C2)ccc1F [Example 32, (4-Chloro-phenyl)-carbamic acid (S)-2,2,2-trifluoro-1-[(R)-3-(4-fluoro-3-methoxy-phenyl)-piperidin-1-ylmethyl]-ethyl ester hydrochloride] | 113 nM |
| O=C(Nc1ccc(Cl)c(Cl)c1)O[C@@H](CN1CCCC(c2cccc(C(F)(F)F)c2)C1)C(F)(F)F (stereo partly drawn) [Example 66, (3,4-Dichlorophenyl)-carbamic acid(S)-2,2,2-trifluoro-1-[3-(3-trifluoromethyl-phenyl)piperidin-1-ylmethyl]-ethyl ester] | 200 nM |
| COc1ccc(C2CCCN(C[C@H](OC(=O)Nc3ccc(Cl)cc3)C(F)(F)F)C2)cc1 (stereo partly drawn) [Example 38, (4-Chlorophenyl)-carbamic acid (S)-2,2,2-trifluoro-1-[3-(4-methoxyphenyl)-piperidin-1-ylmethyl]-ethyl ester] | 622 nM |
| O=C(Nc1ccc(Cl)cc1)O[C@@H](CN1CCC[C@@H](Oc2ccc(Cl)cc2)C1)C(F)(F)F [Example 52b, (4-Chlorophenyl)-carbamic acid (S)-1-[(R)-3-(4-chlorophenoxy)-piperidin-1-ylmethyl]-2,2,2-trifluoroethyl ester hydrochloride] | 961 nM |
| N#Cc1cccc(OC2CCCN(C[C@H](OC(=O)Nc3ccc(Cl)cc3)C(F)(F)F)C2)c1 (stereo partly drawn) [Example 47, (4-Chlorophenyl)-carbamic acid (S)-1-[3-(3-cyanophenoxy)-piperidin-1-ylmethyl]-2,2,2-trifluoroethyl ester hydrochloride] | 219 nM |
| O=C(Nc1ccc(Cl)cc1)O[C@@H](CN1CCCC(Oc2ccccc2)C1)C(F)(F)F (stereo partly drawn) [Example 40, (4-Chlorophenyl)-carbamic acid (S)-2,2,2-trifluoro-1-(3-phenoxypiperidin-1-ylmethyl)-ethyl ester hydrochloride] | 191 nM |
| COc1cc(OC)cc(C2CCCN(C[C@H](OC(=O)Nc3ccc(Cl)cc3)C(F)(F)F)C2)c1 (stereo partly drawn) [Example 21, (4-Chlorophenyl)-carbamic acid (S)-1-[3-(3,5-dimethoxyphenyl)-piperidin-1-ylmethyl]-2,2,2-trifluoroethyl ester] | 203 nM |
| O=C(Nc1ccc(Cl)cc1)O[C@@H](CN1CCC[C@H](Oc2ccncc2)C1)C(F)(F)F (racemic) [Example 22a, (4-chloro-phenyl)-carbamic acid 2,2,2-trifluoro-1-[(R)-3-(pyridin-4-yloxy)-piperidin-1-ylmethyl]-ethyl ester] | 4150 nM |
| CCC1CCCN(CC(OC(=O)Nc2ccc(Cl)cc2)C(F)(F)F)C1 (stereo not drawn) [Example 17, (4-Chlorophenyl)-carbamic acid 1-(3-ethylpiperidin-1-ylmethyl)-2,2,2-trifluoroethyl ester] | 900 nM |
| O=C(Nc1ccc(Cl)cc1)O[C@@H](CN1CCC(F)(F)CC1)C(F)(F)F [Example 33, (4-Chlorophenyl)-carbamic acid (S)-1-(4,4-difluoropiperidin-1-ylmethyl)-2,2,2-trifluoroethyl ester hydrochloride] | 78.3 nM |
| O=C(Nc1ccc(Cl)cc1)OC(CN1CCCC(c2ccccc2)C1)C(F)(F)F (stereo not drawn) [Example 36, (4-Chlorophenyl)-carbamic acid 2,2,2-trifluoro-1-(3-phenylpiperidin-1-ylmethyl)-ethyl ester hydrochloride] | 625 nM |
| CCOc1cccc(C2CCCN(C[C@H](OC(=O)Nc3ccc(Cl)cc3)C(F)(F)F)C2)c1 (stereo partly drawn) [Example 43, (4-Chlorophenyl)-carbamic acid (S)-1-[3-(3-ethoxyphenyl)-piperidin-1-ylmethyl]-2,2,2-trifluoroethyl ester hydrochloride] | 298 nM |
| COc1cc(C2CCCN(C[C@H](OC(=O)Nc3ccc(Cl)cc3)C(F)(F)F)C2)ccc1F (stereo partly drawn) [Example 31, (4-Chlorophenyl)-carbamic acid (S)-2,2,2-trifluoro-1-[3-(4-fluoro-3-methoxyphenyl)-piperidin-1-ylmethyl]-ethyl ester hydrochloride] | 168 nM |
| COCCCC1CCCN(CC(OC(=O)Nc2ccc(Cl)cc2)C(F)(F)F)C1 (stereo not drawn) [Example 19, (4-Chlorophenyl)-carbamic acid 2,2,2-trifluoro-1-[3-(3-methoxypropyl)-piperidin-1-ylmethyl]-ethyl ester] | 288 nM |
| O=C(Nc1ccc(Cl)cc1)O[C@@H](CN1CCCC(c2cccc(F)c2)C1)C(F)(F)F (stereo partly drawn) [Example 41, (4-Chlorophenyl)-carbamic acid (S)-2,2,2-trifluoro-1-[3-(3-fluorophenyl)-piperidin-1-ylmethyl]-ethyl ester hydrochloride] | 320 nM |
| N#Cc1ccc(OC2CCCN(C[C@H](OC(=O)Nc3ccc(Cl)cc3)C(F)(F)F)C2)cc1 (stereo partly drawn) [Example 46, (4-Chlorophenyl)-carbamic acid (S)-1-[3-(4-cyanophenoxy)-piperidin-1-ylmethyl]-2,2,2-trifluoroethyl ester hydrochloride] | 411 nM |
| COc1cccc(C2CCCN(C[C@H](OC(=O)Nc3ccc(F)cc3)C(F)(F)F)C2)c1 (stereo partly drawn) [Example 61, (4-Fluorophenyl)-carbamic acid (S)-2,2,2-trifluoro-1-[3-(3-methoxyphenyl)-piperidin-1-ylmethyl]-ethyl ester hydrochloride] | 273 nM |

— patent publication US20150218141A1, “SUBSTITUTED CARBAMATE COMPOUNDS” (HOFFMANN-LA ROCHE INC, priority 2012, published 2015)
